According to patent publication US7045513B1, “DHEA composition and method” (priority 1999, dated 2006):

Legend:
[1] = Single dose pharmacokinetic study of orally administered DHEA formulations; assay type: in vivo, human; details: conclusion drawn from the single dose study
Method: Example 2 describes a study in which 34 healthy postmenopausal women were administered orally one of three formulations of DHEA, each prepared from commercially available DHEA, in capsular form. The formulations were administered in single dosages of four opaque, size 2 capsules, each capsules containing 50 mg DHEA, 152 mg lactose (169 mg for formulation 3), 108 mg corn starch, and 3 mg magnesium stearate.
Blood samples were collected prior to and at various times after administration, and the levels of DHEA and DHEA-S were measured by immunoassay. […]
AUC (area under curve) is an indicator of extent of absorption; Cmax and Tmax are indicators of rate of absorption. Serum DHEA concentrations for all samples were above the assay limit of quantification. […]
DHEA levels were determined by radioimmunoassay (RIA) at Endocrine Sciences Inc., after non-polar solvent extraction. […] Internal assay controls were monitored via control charts. […]. […]
Adjusted serum levels were calculated by subtracting baseline (average of −0.5 hr and 0 hr serum levels). […] For DHEA and DHEA-S, the peak serum concentration (Cmax) and time to peak concentration (Tmax) were assessed from the concentration-time data. […]

[2] = 14-day stress study of DHEA forms I and II, monitored by XRPD; assay type: physicochemical; details: for Stability (summary): ambient conditions and heat at non-saturating humidity; for Stability to solid form conversion: ambient temperature and 50° C., two weeks, RH as high as 84%
Method: Little weight gain (<0.8%) is observed in these samples. (Weight losses observed at 50° C. could be due to loss of residual solvent, sublimation of sample, and/or thermal degradation.)
X-Ray Powder Diffraction (XRPD). XRPD analyses were carried out on a Siemens D-500 X-ray Powder Diffractometer-Kristaloflex or a Shimadzu XRD-6000 X-ray powder diffractometer using Cu Kα radiation (1.5406 Å).
The Siemens instrument was equipped with an IBM-compatible interface and utilized DIFFRAC AT software (SOCABIM, 1994). Slits I and II were set at 1° and the radiation was electronically filtered by a Kevex Psi Peltier cooled silicon detector with slits III at 1° and IV at 0.15°. A continuous theta-two theta scan at 6°/min (0.4 sec/0.04° step) from 4 to 40°2θ was used. A silicon standard was analyzed each day to check the instrument alignment. Each sample was prepared by pressing a small amount of the powder onto a zero-background quartz-in-aluminum sample holder.
The Shimadzu instrument was equipped with a fine-focus X-ray tube. The tube power was set at 40 kV, 40 mA. The divergence and scattering slits were set at 1° and the receiving slit was set at 0.15 mm. Diffracted radiation was detected by an NaI scintillation detector. A theta-two theta continuous scan at 3°/min (0.4 sec/0.02° step) from 4 to 40°2θ was used. A silicon standard was analyzed each day to check the instrument alignment, and an alumina standard was analyzed each day to check the X-ray tube output. Each sample was prepared for analysis by pressing it with a spatula onto a glass or quartz sample holder.

[3] = Solid form stability of form I after 1, 2, 3 and 6 months, by 13C-SSNMR; assay type: physicochemical
Method: Solid State NMR Method (SSNMR). SSNMR spectra were obtained on a General Electric Omega PSG, 100 MHz spectrometer using about 50 mg of sample in a 5-mm diameter zirconia rotor. High-power proton decoupling and cross-polarization with magic-angle spinning at approximately 5 kHz were used. The magic angle was adjusted using the Br signal of KBr by detecting the side bands as described by Frye and Maciel, 1982. The chemical shifts were referenced externally to the CH resonance of adamantane at 29.50 ppm. Curve fitting of selected peaks for integration was performed as described by MacDonald (1980). The following peaks were used to measure forms I, II and VI: sum of peaks at 118.8 and 120.3 ppm (form I), peak at 119.8 ppm (form II), and peak at 118.5 ppm (form VI).

[4] = 25° C. (ambient temperature), 95% RH

SMILES: C[C@]12CC[C@H](O)CC1=CC[C@@H]1[C@@H]2CC[C@]2(C)C(=O)CC[C@@H]12 [Form II, dehydroepiandrosterone]
- Bioavailability when administered orally [1]: high bioavailability
- Final Form (by XRPD), 14 days [2, 4]: converted to S2
- Wt change, % (14 days) ([2]; 25° C., 58% RH, 14 days): 0%
- Wt change, % (14 days) ([2]; 25° C., 75% RH, 14 days): −0.3%
- Wt change, % (14 days) ([2]; 25° C., 84% RH, 14 days): +0.2%
- Wt change, % (14 days) ([2]; 25° C., 95% RH, 14 days): +5%
- Wt change, % (14 days) ([2]; 50° C., 58% RH, 14 days): −1%
- Final Form (by XRPD), 14 days ([2]; 50° C., 75% RH): II + S1
- Wt change, % (14 days) ([2]; 50° C., 75% RH, 14 days): −2%
- Final Form (by XRPD), 14 days ([2]; 50° C., 84% RH): II + S1
- Wt change, % (14 days) ([2]; 50° C., 84% RH, 14 days): −0.3%
- Final Form (by XRPD), 14 days ([2]; 50° C., 95% RH): II + S1
- Wt change, % (14 days) ([2]; 50° C., 95% RH, 14 days): +1%
- Solid form conversion ([2]; 50°, RH of 75% or greater, 14 days): partially converted to S1
- Stability (summary) [2]: stable
- Stability to solid form conversion [2]: stable to solid form conversion

SMILES: C[C@]12CC[C@H](O)CC1=CC[C@@H]1[C@@H]2CC[C@]2(C)C(=O)CC[C@@H]12 [Form I, dehydroepiandrosterone]
- Bioavailability when administered orally [1]: high bioavailability
- Final Form (by XRPD), 14 days [2, 4]: stable
- Wt change, % (14 days) ([2]; 25° C., 58% RH, 14 days): −0.6%
- Wt change, % (14 days) ([2]; 25° C., 75% RH, 14 days): +0.3%
- Wt change, % (14 days) ([2]; 25° C., 84% RH, 14 days): +0.1%
- Wt change, % (14 days) ([2]; 25° C., 95% RH, 14 days): +0.2%
- Wt change, % (14 days) ([2]; 50° C., 58% RH, 14 days): −1%
- Wt change, % (14 days) ([2]; 50° C., 75% RH, 14 days): −3%
- Wt change, % (14 days) ([2]; 50° C., 84% RH, 14 days): −2%
- Final Form (by XRPD), 14 days ([2]; 50° C., 95% RH): converted to S2
- Wt change, % (14 days) ([2]; 50° C., 95% RH, 14 days): +1%
- Stability (summary) [2]: stable
- Stability to solid form conversion [2]: stable to solid form conversion
- Overall stability, form I compared with form II ([2]; summary of the stability studies): greater overall stability
- Final Form (by 13C-SSNMR), 1, 2, 3, and 6 months ([3]; 25° C., 58% RH): remained stable to solid form conversion
- Final Form (by 13C-SSNMR), 1, 2, 3, and 6 months ([3]; 40° C. (footnote b), 75% RH): remained stable to solid form conversion
